Experiments:
Format in all cases: biochemical
[1] = biological target: LCK (Homo sapiens, UniProt P06239); assay: Kinase panel inhibition, LCK (one of the methods of Example 76a, 76b, 76c)
Description: (§1) Btk kinase activity is determined using a time-resolved fluorescence resonance energy transfer (TR-FRET) methodology. Measurements are performed in a reaction volume of 50 μL using 96-well assay plates. Kinase enzyme, inhibitor, ATP (at the Km for the kinase), and 1 peptide substrate (Biotin-AVLESEEELYSSARQ-NH2) are incubated in a reaction buffer composed of 20 mM Tris, 50 mM NaCl, MgCl2 (5-25 mM depending on the kinase), MnCl2 (0-10 mM), 1 mM DTT, 0.1 mM EDTA, 0.01% bovine serum albumin, 0.005% Tween-20, and 10% DMSO at pH 7.4 for one hour. The reaction is quenched by the addition of 1.2 equivalents of EDTA (relative to divalent cation) in 25 μL of 1× Lance buffer (Perkin-Elmer). Streptavidin-APC (Perkin-Elmer) and Eu-labeled p-Tyr100 antibody (Perkin-Elmer) in 1× Lance buffer are added in a 25 μL volume to give final concentrations of 100 nM and 2.5 nM, respectively, and the mixture is allowed to incubate for one hour. The TR-FRET signal is measured on a multimode plate reader with an excitation wavelength (λEx) of 330 nm and detection wavelengths (λEm) of 615 and 665 nm. Activity is determined by the ratio of the fluorescence at 665 nm to that at 615 nm. For each compound, enzyme activity is measured at various concentrations of compound. Negative control reactions are performed in the absence of inhibitor in replicates of six, and two no-enzyme controls are used to determine baseline fluorescence levels. Inhibition constants, Ki(app), were obtained using the program BatchKi (Kuzmic et al. (2000), Anal. Biochem. 286:45-50). IC50s are obtained according to the equation: IC50=[…]+[E]total/2;
(§2) For all kinases, [ATP]=Km^ATP, [Btk]total=0.5 nM and [Lck]total=6 nM.
(§3) Kinase activity is measured in vitro using electrophoretic mobility shift assay. The kinase reactions are assembled in a total volume of 25 μL in 384 well plates. The reactions comprise: BTK enzyme (1 nM, N-terminal His6-tagged, recombinant, full-length, human BTK purified from baculovirus Sf21 insect cell system), inhibitor, ATP (16 μM, the apparent Km for the kinase), fluorescently labeled peptide substrate (1 μM, FAM-GEEPLYWSFPAKKK-NH2) in a reaction buffer composed of 100 mM HEPES, pH7.5, 5 mM MgCl2 1 mM DTT, 0.1% bovine serum albumin, 0.01% Triton X-100, and 1% DMSO. The reaction is incubated for one hour and is quenched by the addition of 45 μL of termination buffer (100 mM HEPES, pH7.5, 0.01% Triton X-100, 30 mM EDTA). The terminated reactions are analyzed using 12 channel LabChip® 3000 microfluidic detection instrument (Caliper Life Sciences). The enzymatic phosphorylation of the peptide results in a change in net charge, enabling electrophoretic separation of product from substrate peptide. As substrate and product peptides are separated, two peaks of fluorescence are observed. Change in the relative fluorescence intensity of the substrate and product peaks is the parameter measured, reflecting enzyme activity. In the presence of an inhibitor, the ratio between product and substrate is altered:the signal of the product decreases, while the signal of the substrate increases.
(§4) Activity in each sample is determined as the product to sum ratio (PSR):P/(S+P), where P is the peak height of the product peptide and S is the peak height of the substrate peptide. For each compound, enzyme activity is measured at various concentrations (12 concentrations of compound spaced by 3× dilution intervals). Negative control samples (0%-inhibition in the absence of inhibitor) and positive control samples (100%-inhibition, in the presence of 20 mM EDTA) are assembled in replicates of four and are used to calculate %-inhibition values for each inhibitor at each concentration. Percent inhibition (Pinh) is determined using following equation: […]

[2] = biological target: T1, BTK (Homo sapiens, UniProt Q06187); assay: Btk in vitro inhibitory activity (kinase assay by one of Methods A, B or C)
T1 construct: purified from insect cells as a full-length construct containing a N-terminal 6×-His tag; His6 (N); host or cells: insect cells (baculovirus Sf21)
T1 sequence (Q06187 whole entry): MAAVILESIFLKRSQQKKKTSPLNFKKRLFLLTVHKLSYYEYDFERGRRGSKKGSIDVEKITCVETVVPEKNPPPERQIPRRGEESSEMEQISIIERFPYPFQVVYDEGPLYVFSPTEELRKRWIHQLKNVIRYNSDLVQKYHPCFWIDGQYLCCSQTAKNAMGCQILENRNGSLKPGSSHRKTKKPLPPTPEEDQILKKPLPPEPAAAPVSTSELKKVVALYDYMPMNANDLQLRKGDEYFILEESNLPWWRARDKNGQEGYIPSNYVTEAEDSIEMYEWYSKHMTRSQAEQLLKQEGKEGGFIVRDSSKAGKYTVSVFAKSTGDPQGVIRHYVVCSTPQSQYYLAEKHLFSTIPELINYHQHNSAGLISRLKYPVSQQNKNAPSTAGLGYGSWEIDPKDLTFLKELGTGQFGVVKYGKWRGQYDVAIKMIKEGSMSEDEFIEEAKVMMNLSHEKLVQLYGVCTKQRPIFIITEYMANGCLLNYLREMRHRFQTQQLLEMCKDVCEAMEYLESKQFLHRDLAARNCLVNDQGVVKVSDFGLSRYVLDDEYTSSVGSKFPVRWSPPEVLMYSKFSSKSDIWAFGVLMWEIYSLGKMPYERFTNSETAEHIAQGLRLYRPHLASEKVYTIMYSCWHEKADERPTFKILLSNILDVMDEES
Description: as §1, §2, §3, §4

[3] = biological target: EGFR (Homo sapiens, UniProt P00533); assay: Kinase panel inhibition, EGFR (one of the methods of Example 76a, 76b, 76c)
Sequence of EGFR (P00533 25-1210, species assumed): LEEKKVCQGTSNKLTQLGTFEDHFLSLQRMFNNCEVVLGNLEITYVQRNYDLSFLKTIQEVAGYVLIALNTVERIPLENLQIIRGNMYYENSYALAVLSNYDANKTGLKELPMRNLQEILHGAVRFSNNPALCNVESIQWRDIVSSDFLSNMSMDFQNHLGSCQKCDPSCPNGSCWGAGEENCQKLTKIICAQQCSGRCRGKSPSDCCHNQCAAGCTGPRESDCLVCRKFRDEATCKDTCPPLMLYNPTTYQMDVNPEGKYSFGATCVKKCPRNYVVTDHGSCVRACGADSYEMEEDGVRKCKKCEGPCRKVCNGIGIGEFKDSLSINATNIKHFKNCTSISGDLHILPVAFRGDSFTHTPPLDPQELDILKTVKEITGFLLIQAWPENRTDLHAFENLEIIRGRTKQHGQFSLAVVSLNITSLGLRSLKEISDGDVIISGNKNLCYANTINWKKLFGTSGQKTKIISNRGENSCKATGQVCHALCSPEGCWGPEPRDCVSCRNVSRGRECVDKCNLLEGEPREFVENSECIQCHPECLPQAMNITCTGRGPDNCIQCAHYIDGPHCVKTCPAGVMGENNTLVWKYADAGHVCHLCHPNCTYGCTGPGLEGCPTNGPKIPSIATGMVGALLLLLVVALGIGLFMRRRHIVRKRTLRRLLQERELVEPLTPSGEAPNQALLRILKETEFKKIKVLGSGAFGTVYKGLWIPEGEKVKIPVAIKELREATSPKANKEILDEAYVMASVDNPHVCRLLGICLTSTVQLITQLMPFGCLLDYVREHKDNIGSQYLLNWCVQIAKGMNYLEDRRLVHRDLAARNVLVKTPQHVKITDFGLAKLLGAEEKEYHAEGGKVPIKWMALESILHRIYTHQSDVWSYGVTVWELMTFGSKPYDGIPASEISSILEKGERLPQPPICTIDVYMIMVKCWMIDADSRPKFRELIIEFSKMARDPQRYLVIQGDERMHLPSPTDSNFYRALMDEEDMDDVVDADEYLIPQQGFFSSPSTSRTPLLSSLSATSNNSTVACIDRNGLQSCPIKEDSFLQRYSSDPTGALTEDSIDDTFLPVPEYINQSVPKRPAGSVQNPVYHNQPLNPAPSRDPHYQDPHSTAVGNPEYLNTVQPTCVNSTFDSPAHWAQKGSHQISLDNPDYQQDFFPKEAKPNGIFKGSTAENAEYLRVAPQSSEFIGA
Description: as §1, §2, §3, §4

Sequence of LCK (P06239 whole entry, species assumed): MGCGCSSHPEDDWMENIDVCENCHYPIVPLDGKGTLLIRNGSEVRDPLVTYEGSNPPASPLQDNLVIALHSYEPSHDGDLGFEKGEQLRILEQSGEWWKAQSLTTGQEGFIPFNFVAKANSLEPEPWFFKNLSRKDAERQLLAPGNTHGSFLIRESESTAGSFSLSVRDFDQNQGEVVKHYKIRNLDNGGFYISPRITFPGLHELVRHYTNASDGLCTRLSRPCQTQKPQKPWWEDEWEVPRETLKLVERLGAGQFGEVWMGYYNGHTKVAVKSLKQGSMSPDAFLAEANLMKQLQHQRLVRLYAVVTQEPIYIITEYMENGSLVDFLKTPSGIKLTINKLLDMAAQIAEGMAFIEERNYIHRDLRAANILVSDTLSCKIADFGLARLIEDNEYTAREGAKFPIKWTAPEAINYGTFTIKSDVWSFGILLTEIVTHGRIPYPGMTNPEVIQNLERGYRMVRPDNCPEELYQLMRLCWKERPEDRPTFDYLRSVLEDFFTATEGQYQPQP

| SMILES | IC50 [1] | IC50 [2] | IC50 [3] |
| --- | --- | --- | --- |
| CN(C(=O)/C=C/CN(C)[C@@H]1CCOC1)c1cccc(-n2c(=O)n(-c3ccc(Oc4ccccc4)cc3)c3c(N)ncnc32)c1 [Compound 129, (R,E)-N-(3-(6-amino-8-oxo-7-(4-phenoxyphenyl)-7H-purin-9(8H)-yl)phenyl)-N-methyl-4-(methyl(tetrahydrofuran-3-yl)amino)but-2-enamide] | 1000 to 10000 nM | < 100 nM | 1000 to 10000 nM |
| CN(C)C/C=C/C(=O)N(C)c1cccc(-n2c(=O)n(-c3ccc(Oc4ccccc4)cc3)c3c(N)ncnc32)c1 [Compound 33, (E)-N-(3-(6-amino-8-oxo-7-(4-phenoxyphenyl)-7H-purin-9(8H)-yl)phenyl)-4-(dimethylamino)-N-methylbut-2-enamide] | 1000 to 10000 nM | < 100 nM | 100 to 1000 nM |
| CN(C(=O)/C=C/CN(C)C1CC1)c1cccc(-n2c(=O)n(-c3ccc(OCc4ccccc4)cc3)c3c(N)ncnc32)c1 [Compound 234, (E)-N-(3-(6-amino-7-(4-(benzyloxy)phenyl)-8-oxo-7H-purin-9(8H)-yl)phenyl)-4-(cyclopropyl(methyl)amino)-N-methylbut-2-enamide] | 1000 to 10000 nM | < 100 nM | 1000 to 10000 nM |
| CN(C)C/C=C/C(=O)Nc1cccc(-n2c(=O)n(-c3ccc(Cl)cc3)c3c(N)ncnc32)c1 [Compound 14, (E)-N-(3-(6-amino-7-(4-chlorophenyl)-8-oxo-7H-purin-9(8H)-yl)phenyl)-4-(dimethylamino)but-2-enamide] | 1000 to 10000 nM | < 100 nM | 1000 to 10000 nM |
| COc1cc(-n2c(=O)n(-c3cccc(N(C)C(=O)/C=C/CN(C)C4CC4)c3)c3ncnc(N)c32)ccc1OCc1ccccc1 [Compound 295, (E)-N-(3-(6-amino-7-(4-(benzyloxy)-3-methoxyphenyl)-8-oxo-7H-purin-9(8H)-yl)phenyl)-4-(cyclopropyl(methyl)amino)-N-methylbut-2-enamide] | > 10000 nM | < 100 nM | > 10000 nM |
| CN(C/C=C/C(=O)N1CCOc2ccc(-n3c(=O)n(-c4ccc(Oc5ccccc5)cc4)c4c(N)ncnc43)cc21)C1CC1 [Compound 161, (E)-6-amino-9-(4-(4-(cyclopropyl(methyl)amino)but-2-enoyl)-3,4-dihydro-2H-benzo[b][1,4]oxazin-6-yl)-7-(4-phenoxyphenyl)-7H-purin-8(9H)-one] | 1000 to 10000 nM | < 100 nM | 100 to 1000 nM |
| CN(C(=O)/C=C/CN(C)[C@H]1CCOC1)c1cccc(-n2c(=O)n(-c3ccc(Oc4ccccc4)cc3)c3c(N)ncnc32)c1 [Compound 123, (S,E)-N-(3-(6-amino-8-oxo-7-(4-phenoxyphenyl)-7H-purin-9(8H)-yl)phenyl)-N-methyl-4-(methyl(tetrahydrofuran-3-yl)amino)but-2-enamide] | 1000 to 10000 nM | < 100 nM | 1000 to 10000 nM |
| CN(C)C/C=C/C(=O)Nc1cccc(-n2c(=O)n(-c3ccc(Oc4ccccc4)cc3)c3c(N)ncnc32)c1 [Compound 8, (E)-N-(3-(6-amino-8-oxo-7-(4-phenoxyphenyl)-7H-purin-9(8H)-yl)phenyl)-4-(dimethylamino)but-2-enamide] | 100 to 1000 nM | < 100 nM | < 100 nM |
| CN(C)C/C=C/C(=O)N(C)c1cccc(-n2c(=O)n(-c3ccc(Cl)cc3)c3c(N)ncnc32)c1 [Compound 27, (E)-N-(3-(6-amino-7-(4-chlorophenyl)-8-oxo-7H-purin-9(8H)-yl)phenyl)-4-(dimethylamino)-N-methylbut-2-enamide] | > 10000 nM | < 100 nM | > 10000 nM |
| COc1cc(-n2c(=O)n([C@@H]3CCN(C(=O)/C=C/CN(C)C)C3)c3ncnc(N)c32)ccc1C [Compound 81, (R,E)-6-amino-9-(1-(4-(dimethylamino)but-2-enoyl)pyrrolidin-3-yl)-7-(3-methoxy-4-methylphenyl)-7H-purin-8(9H)-one] | 1000 to 10000 nM | < 100 nM | > 10000 nM |

The next lines start with the values.

| IC50 [1] | IC50 [2] | IC50 [3] | SMILES |
| --- | --- | --- | --- |
| 1000 to 10000 nM | 100 to 1000 nM | > 10000 nM | CN(C(=O)/C=C/CN(C)C1CC1)c1ccc(-n2c(=O)n(-c3ccc(Cl)cc3)c3c(N)ncnc32)cc1 [Compound 49, (E)-N-(4-(6-amino-7-(4-chlorophenyl)-8-oxo-7H-purin-9(8H)-yl)phenyl)-4-(cyclopropyl(methyl)amino)-N-methylbut-2-enamide] |
| 1000 to 10000 nM | < 100 nM | 1000 to 10000 nM | COc1cc(-n2c(=O)n(-c3cccc(NC(=O)/C=C/CN(C)C)c3)c3ncnc(N)c32)ccc1C [Compound 17, (E)-N-(3-(6-amino-7-(3-methoxy-4-methylphenyl)-8-oxo-7H-purin-9(8H)-yl)phenyl)-4-(dimethylamino)but-2-enamide] |
| > 10000 nM | < 100 nM | > 10000 nM | COc1cc(-n2c(=O)n(-c3cccc(N(C)C(=O)/C=C/CN(C)C)c3)c3ncnc(N)c32)ccc1C [Compound 30, (E)-N-(3-(6-amino-7-(3-methoxy-4-methylphenyl)-8-oxo-7H-purin-9(8H)-yl)phenyl)-4-(dimethylamino)-N-methylbut-2-enamide] |
| 100 to 1000 nM | < 100 nM | < 100 nM | CN(C/C=C/C(=O)Nc1cccc(-n2c(=O)n(-c3ccc(Oc4ccccc4)cc3)c3c(N)ncnc32)c1)C1CCC1 [Compound 10, (E)-N-(3-(6-amino-8-oxo-7-(4-phenoxyphenyl)-7H-purin-9(8H)-yl)phenyl)-4-(cyclobutyl(methyl)amino)but-2-enamide] |
| 1000 to 10000 nM | < 100 nM | 1000 to 10000 nM | C=CC(=O)N(C)c1ccc(-n2c(=O)n(-c3ccc(C)c(OC)c3)c3c(N)ncnc32)cc1 [Compound 55, N-(4-(6-amino-7-(3-methoxy-4-methylphenyl)-8-oxo-7H-purin-9(8H)-yl)phenyl)-N-methylacrylamide] |
| 1000 to 10000 nM | < 100 nM | 1000 to 10000 nM | COc1cc(-n2c(=O)n(-c3cccc(N(C)C(=O)/C=C/CN(C)C4CC4)c3)c3ncnc(N)c32)ccc1Oc1ccccc1 [Compound 285, (E)-N-(3-(6-amino-7-(3-methoxy-4-phenoxyphenyl)-8-oxo-7H-purin-9(8H)-yl)phenyl)-4-(cyclopropyl(methyl)amino)-N-methylbut-2-enamide] |
| 1000 to 10000 nM | < 100 nM | 100 to 1000 nM | C=CC(=O)N(C)c1ccc(-n2c(=O)n(-c3ccc(Cl)cc3)c3c(N)ncnc32)cc1 [Compound 51, N-(4-(6-amino-7-(4-chlorophenyl)-8-oxo-7H-purin-9(8H)-yl)phenyl)-N-methylacrylamide] |
| 1000 to 10000 nM | < 100 nM | 1000 to 10000 nM | COc1cc(N(C)C(=O)/C=C/CN(C)C2CC2)cc(-n2c(=O)n(-c3ccc(Oc4ccccc4)cc3)c3c(N)ncnc32)c1 [Compound 224, (E)-N-(3-(6-amino-8-oxo-7-(4-phenoxyphenyl)-7H-purin-9(8H)-yl)-5-methoxyphenyl)-4-(cyclopropyl(methyl)amino)-N-methylbut-2-enamide] |
| < 100 nM | < 100 nM | < 100 nM | CN(C)C/C=C/C(=O)N(C)[C@H]1CC[C@@H](n2c(=O)n(-c3ccc(Oc4ccccc4)cc3)c3c(N)ncnc32)CC1 [Compound 328, (E)-N-((1s,4s)-4-(6-amino-8-oxo-7-(4-phenoxyphenyl)-7H-purin-9(8H)-yl)cyclohexyl)-4-(dimethylamino)-N-methylbut-2-enamide] |
